One assay deals with human M3 receptor (Homo sapiens (Human), UniProt P20309). In words: Radioligand (tritiated N-methylscopolamine) binding assay, M3. The following applies: CHO cell membranes expressing human M3; 1.5 nM tritiated N-methylscopolamine; 90 min, 37° C.; read-out: Ki against M3 receptor (Table 21, M3). The procedure: (§1) Binding affinity (Ki) of compounds was measured by inhibition of radioligand binding to membranes from CHO cells expressing human M1, M2, M3, M4 and M5 receptors. Membranes were prepared by nitrogen cavitation and differential centrifugation as previously described (Hoare et al., Mol. Pharmacol. 2003 March; 63(3): 751-65). The radioligand employed was tritiated N-methylscopolamine, used at a concentration of 1.5 nM. A dose-response of twelve concentrations of compound was used, ranging from 10 μM to […]. The assay buffer was 50 mM HEPES, 100 mM NaCl, 5 mM MgCl2, 1 mM ethylenediaminetetraacetic acid, pH-adjusted to pH 7.4. Membranes, radioligand and compound were incubated together for 90 minutes at 37° C., in a total volume of 150 μl in a 96-well plate. Receptor-bound radioligand was then collected by harvesting the assay over glass fiber filters pretreated with polyethylenimine to trap the cell membranes, using rapid vacuum filtration. Harvesting and radioactivity counting was conducted as previously described (see, e.g., Hoare et al., Mol. Pharmacol. 2003 63(3):751-65); Erratum at Mol. Pharmacol. 2005 July; 68(1): 260).
Chain of human M3 receptor (P20309 whole entry): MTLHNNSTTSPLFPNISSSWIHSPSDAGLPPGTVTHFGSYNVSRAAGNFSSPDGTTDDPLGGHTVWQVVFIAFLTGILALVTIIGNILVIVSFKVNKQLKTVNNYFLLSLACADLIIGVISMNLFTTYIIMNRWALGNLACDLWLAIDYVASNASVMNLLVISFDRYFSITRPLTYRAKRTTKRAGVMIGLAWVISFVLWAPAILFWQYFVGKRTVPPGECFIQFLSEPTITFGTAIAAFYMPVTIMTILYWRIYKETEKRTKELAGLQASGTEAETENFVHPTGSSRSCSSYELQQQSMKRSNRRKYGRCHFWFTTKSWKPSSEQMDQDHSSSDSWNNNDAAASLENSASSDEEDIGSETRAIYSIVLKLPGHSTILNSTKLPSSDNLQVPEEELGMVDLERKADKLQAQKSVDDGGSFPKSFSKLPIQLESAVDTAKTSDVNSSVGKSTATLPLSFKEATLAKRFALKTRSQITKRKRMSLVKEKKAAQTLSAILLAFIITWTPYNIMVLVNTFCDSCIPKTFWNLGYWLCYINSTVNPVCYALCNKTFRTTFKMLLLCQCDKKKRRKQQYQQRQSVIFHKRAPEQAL

The next assay deals with human M4 receptor (Homo sapiens (Human), UniProt P08173). In words: Radioligand (tritiated N-methylscopolamine) binding assay, M4. The following applies: Ki against the M4 receptor; membranes from CHO cells expressing human M4; tritiated N-methylscopolamine 1.5 nM; read-out: Ki. In outline: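 Compounds were tested at twelve concentrations ranging from 10 μM to […] against 1.5 nM radioligand on CHO cell membranes expressing each subtype. Incubation lasts 90 min at 37 °C in HEPES-buffered saline with Mg2+ and EDTA, pH 7.4, and filtration then separates bound radioligand.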
Chain of human M4 receptor (P08173 whole entry): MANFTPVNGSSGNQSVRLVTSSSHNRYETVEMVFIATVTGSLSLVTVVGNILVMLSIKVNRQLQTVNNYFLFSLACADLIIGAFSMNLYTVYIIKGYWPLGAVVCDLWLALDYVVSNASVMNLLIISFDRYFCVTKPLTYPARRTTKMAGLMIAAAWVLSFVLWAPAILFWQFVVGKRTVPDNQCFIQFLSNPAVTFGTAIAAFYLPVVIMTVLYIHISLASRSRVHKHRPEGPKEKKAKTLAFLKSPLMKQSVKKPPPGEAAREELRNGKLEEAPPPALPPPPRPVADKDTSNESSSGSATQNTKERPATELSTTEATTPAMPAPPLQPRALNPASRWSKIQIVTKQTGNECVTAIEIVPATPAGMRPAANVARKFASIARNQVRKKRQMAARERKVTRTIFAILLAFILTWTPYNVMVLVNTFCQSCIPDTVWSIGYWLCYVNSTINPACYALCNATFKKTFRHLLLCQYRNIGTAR

The next assay concerns the target human M1 receptor (Homo sapiens (Human), UniProt P11229). Briefly: Radioligand (tritiated N-methylscopolamine) binding assay, M1. The following applies: CHO cell membranes expressing human M1; 1.5 nM tritiated N-methylscopolamine; 90 min, 37° C.; read-out: Ki against M1 receptor (Table 21, M1). The procedure:
as §1

Another assay concerns the target human M2 receptor (Homo sapiens (Human), UniProt P08172). In words: Radioligand (tritiated N-methylscopolamine) binding assay, M2. The following applies: CHO cell membranes expressing human M2; 1.5 nM tritiated N-methylscopolamine; 90 min, 37° C.; read-out: Ki against M2 receptor (Table 21, M2). The procedure:
as §1

The target of the next assay is human M5 receptor (Homo sapiens (Human), UniProt P08912). In words: Radioligand (tritiated N-methylscopolamine) binding assay, M5. The following applies: CHO cell membranes expressing human M5; 1.5 nM tritiated N-methylscopolamine; 90 min, 37° C.; read-out: Ki against M5 receptor (Table 21, M5). The procedure: as §1
Chain of human M5 receptor (P08912 whole entry): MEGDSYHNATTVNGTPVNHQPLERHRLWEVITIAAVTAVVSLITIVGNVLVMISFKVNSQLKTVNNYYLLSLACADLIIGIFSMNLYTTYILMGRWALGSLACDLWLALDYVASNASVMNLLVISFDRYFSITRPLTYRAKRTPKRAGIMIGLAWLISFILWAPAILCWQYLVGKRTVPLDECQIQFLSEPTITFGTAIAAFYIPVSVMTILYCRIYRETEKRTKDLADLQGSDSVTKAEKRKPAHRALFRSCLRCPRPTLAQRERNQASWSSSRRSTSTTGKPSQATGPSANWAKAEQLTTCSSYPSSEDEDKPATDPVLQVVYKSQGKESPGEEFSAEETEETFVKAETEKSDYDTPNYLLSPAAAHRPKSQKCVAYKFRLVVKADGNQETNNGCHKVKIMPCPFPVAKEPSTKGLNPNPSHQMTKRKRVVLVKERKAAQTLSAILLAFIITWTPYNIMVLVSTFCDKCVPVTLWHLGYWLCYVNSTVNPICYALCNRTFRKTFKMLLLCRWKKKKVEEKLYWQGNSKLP

Chain of human M2 receptor (P08172 whole entry): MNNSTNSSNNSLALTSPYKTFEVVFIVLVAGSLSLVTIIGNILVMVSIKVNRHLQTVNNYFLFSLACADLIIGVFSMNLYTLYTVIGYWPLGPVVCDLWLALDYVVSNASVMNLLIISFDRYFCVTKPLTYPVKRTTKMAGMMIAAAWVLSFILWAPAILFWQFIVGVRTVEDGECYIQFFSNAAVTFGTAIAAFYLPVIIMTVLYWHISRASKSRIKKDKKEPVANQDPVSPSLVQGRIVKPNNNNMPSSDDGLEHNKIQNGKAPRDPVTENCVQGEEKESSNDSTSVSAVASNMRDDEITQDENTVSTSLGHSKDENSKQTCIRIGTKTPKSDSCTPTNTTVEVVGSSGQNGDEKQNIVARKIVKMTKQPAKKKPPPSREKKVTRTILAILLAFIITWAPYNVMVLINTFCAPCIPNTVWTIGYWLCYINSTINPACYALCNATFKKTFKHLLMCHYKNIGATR
Chain of human M1 receptor (P11229 whole entry): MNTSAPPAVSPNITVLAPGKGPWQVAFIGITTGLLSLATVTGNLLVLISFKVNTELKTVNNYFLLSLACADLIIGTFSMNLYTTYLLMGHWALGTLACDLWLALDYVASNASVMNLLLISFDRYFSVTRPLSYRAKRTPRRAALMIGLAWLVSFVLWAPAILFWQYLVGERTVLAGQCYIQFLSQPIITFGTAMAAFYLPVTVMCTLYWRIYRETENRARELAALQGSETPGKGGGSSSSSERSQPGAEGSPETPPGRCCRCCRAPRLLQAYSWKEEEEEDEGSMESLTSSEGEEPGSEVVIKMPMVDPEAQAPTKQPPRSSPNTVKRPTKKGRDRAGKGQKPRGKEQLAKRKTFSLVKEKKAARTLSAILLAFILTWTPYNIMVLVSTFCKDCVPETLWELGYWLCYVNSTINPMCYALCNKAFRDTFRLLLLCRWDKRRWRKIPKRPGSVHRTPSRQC

With `C[C@@H]1CN(c2ccc(OC(F)(F)F)c(C#N)c2)CCN1C(=O)NCCC1CCN(Cc2ccccc2)CC1` [3-1, (2R)-N-[2-(1-benzylpiperidin-4-yl)ethyl]-4-[3-cyano-4-(trifluoromethoxy)phenyl]-2-methylpiperazine-1-carboxamide], the Ki was greater than 1000 nM at human M3 receptor; less than 10 nM on human M4 receptor; 100 to 1000 nM at human M1 receptor; 10 to 100 nM at human M2 receptor; greater than 1000 nM on human M5 receptor.
As to `C[C@@H]1CN(c2ccc(OC(F)(F)F)c(C#N)c2)CCN1C(=O)NCCC1(O)CCN(Cc2ccccc2)CC1` [3-5, (2R)-N-[2-(1-benzyl-4-hydroxypiperidin-4-yl)ethyl]-4-[3-cyano-4-(trifluoromethoxy)phenyl]-2-methylpiperazine-1-carboxamide], the Ki was greater than 1000 nM on human M3 receptor; less than 10 nM at human M4 receptor; greater than 1000 nM at human M1 receptor; 100 to 1000 nM on human M2 receptor; greater than 1000 nM on human M5 receptor.
Take `C[C@@H]1CN(c2ccc(OC(F)(F)F)nc2)CCN1C(=O)NCCC1CCN(Cc2ccccc2)CC1` [3-8, (2R)-N-[2-(1-benzylpiperidin-4-yl)ethyl]-2-methyl-4-[6-(trifluoromethoxy)pyridin-3-yl]piperazine-1-carboxamide]: the Ki on human M3 receptor was 100 to 1000 nM; at human M4 receptor it was less than 10 nM; at human M1 receptor, 100 to 1000 nM; at human M2 receptor, 10 to 100 nM; at human M5 receptor it was greater than 1000 nM.
In the case of `C[C@@H]1CN(c2ncc(C(F)(F)F)cn2)CCN1C(=O)NCCC1CCN(Cc2ccccc2)CC1` [3-9, (2R)-N-[2-(1-benzylpiperidin-4-yl)ethyl]-2-methyl-4-[5-(trifluoromethyl)pyrimidin-2-yl]piperazine-1-carboxamide], the Ki at human M3 receptor was 100 to 1000 nM; at human M4 receptor, less than 10 nM; at human M1 receptor, 100 to 1000 nM; on human M2 receptor, 10 to 100 nM; on human M5 receptor it was greater than 1000 nM.
Take `C[C@@H]1CN(c2ccc3c(c2)OC(F)(F)O3)CCN1C(=O)NCCC1CCN(Cc2ccccc2)CC1` [4-6, (2R)-N-[2-(1-benzylpiperidin-4-yl)ethyl]-4-(2,2-difluoro-2H-1,3-benzodioxol-5-yl)-2-methylpiperazine-1-carboxamide]: the Ki at human M4 receptor was less than 10 nM; on human M1 receptor, 100 to 1000 nM; at human M2 receptor, 10 to 100 nM; at human M5 receptor, greater than 1000 nM.
In the same order, the values of `C[C@@H]1CN(c2nccc(C#N)n2)C[C@H](C)N1C(=O)NCCC1CCN(Cc2ccccc2)CC1` [4-14, (2S,6R)-N-[2-(1-benzylpiperidin-4-yl)ethyl]-4-(4-cyanopyrimidin-2-yl)-2,6-dimethylpiperazine-1-carboxamide] are less than 10 nM, greater than 1000 nM, 100 to 1000 nM and greater than 1000 nM.
In the same order, the values of `C[C@@H]1CN(c2cccc(OC(F)(F)F)c2)CCN1C(=O)NCCC1CCN(Cc2ccccc2)CC1` [4-16, (2R)-N-[2-(1-benzylpiperidin-4-yl)ethyl]-2-methyl-4-[3-(trifluoromethoxy)phenyl]piperazine-1-carboxamide] are less than 10 nM, 100 to 1000 nM, 100 to 1000 nM and greater than 1000 nM.
With `C[C@@H]1CN(c2ncc(C#N)c(N)n2)C[C@H](C)N1C(=O)NCCC1CCN(Cc2ccccc2)CC1` [4-54, (2S,6R)-4-(4-amino-5-cyanopyrimidin-2-yl)-N-[2-(1-benzylpiperidin-4-yl)ethyl]-2,6-dimethylpiperazine-1-carboxamide], the Ki was greater than 1000 nM at human M3 receptor, 100 to 1000 nM at human M1 receptor, 100 to 1000 nM on human M2 receptor and greater than 1000 nM at human M5 receptor.
Turning to `C[C@@H]1CN(c2cc(F)cc(F)c2)CCN1C(=O)NCCC1CCN(Cc2ccccc2)CC1` [4-72, (2R)-N-[2-(1-benzylpiperidin-4-yl)ethyl]-4-(3,5-difluorophenyl)-2-methylpiperazine-1-carboxamide], the Ki at human M4 receptor was less than 10 nM; at human M1 receptor, 100 to 1000 nM; at human M2 receptor, 100 to 1000 nM; at human M5 receptor, greater than 1000 nM.
`C[C@@H]1CN(c2ncc(C#N)c(N)n2)C[C@H](C)N1C(=O)NCCC1CCN(Cc2ccccc2)CC1` [5-14, (2S,6R)-4-(4-amino-5-cyanopyrimidin-2-yl)-N-[2-(1-benzylpiperidin-4-yl)ethyl]-2,6-dimethylpiperazine-1-carboxamide]: the Ki at human M4 receptor was less than 10 nM; at human M1 receptor it was 100 to 1000 nM; on human M2 receptor, 100 to 1000 nM.
With `O=C(NCCC1CCN(Cc2ccccc2)CC1)c1ccc(-c2ccc(OC(F)(F)F)cc2)cc1` [9-70, N-[2-(1-benzylpiperidin-4-yl)ethyl]-4-[4-(trifluoromethoxy)phenyl]benzamide], the Ki on human M1 receptor and on human M2 receptor was 100 to 1000 nM throughout.
`O=C(NCCC1(O)CCN(Cc2ccccc2)CC1)C1CCN(c2ccc(OC(F)(F)F)c(F)c2)CC1` [9-72, N-[2-(1-benzyl-4-hydroxypiperidin-4-yl)ethyl]-1-[3-fluoro-4-(trifluoromethoxy)phenyl]piperidine-4-carboxamide]: the Ki at human M1 receptor and at human M2 receptor was 100 to 1000 nM in each case.
In the case of `CC1CN(c2ccc(OC(F)(F)F)cc2)CCC1C(=O)NCCC1CCN(Cc2ccccc2)CC1` (centres unmarked) [10-42, N-[2-(1-benzylpiperidin-4-yl)ethyl]-3-methyl-1-[4-(trifluoromethoxy)phenyl]piperidine-4-carboxamide], the inhibitory constant (Ki) at human M1 receptor and at human M2 receptor was 100 to 1000 nM in each case.
On to `O=C(NCCC1CCN(Cc2ccccc2)CC1)C1CCN(c2cc(F)c(F)c(F)c2)CC1` [10-43, N-[2-(1-benzylpiperidin-4-yl)ethyl]-1-(3,4,5-trifluorophenyl)piperidine-4-carboxamide], for which the Ki at human M2 receptor lay within 100 to 1000 nM.
In the case of `O=C(NCCC1CCN(Cc2ccccc2)CC1)C1CCN(c2ccc(OC(F)(F)F)c(F)c2)CC1` [10-44, N-[2-(1-benzylpiperidin-4-yl)ethyl]-1-[3-fluoro-4-(trifluoromethoxy)phenyl]piperidine-4-carboxamide], the Ki at human M2 receptor is 100 to 1000 nM.
As to `C[C@@H]1CN(c2ncc(C#N)cn2)C[C@H](C)N1C(=O)NCCC1CCN(Cc2ccccc2)CC1` [21-2, (2R,6S)-4-(5-cyanopyrimidin-2-yl)-2,6-dimethyl-N-(2-{1-[α,α-^2H-benzyl]piperidin-4-yl}ethyl)piperazine-1-carboxamide], the Ki on human M3 receptor is greater than 1000 nM; at human M4 receptor, less than 10 nM; at human M1 receptor, greater than 1000 nM; at human M5 receptor it was greater than 1000 nM.
Regarding `C[C@@H]1CN(c2ncc(C(F)(F)F)cn2)CCN1C(=O)NCCC1CCN(Cc2ccccc2)CC1` [21-14, (2R)-2-methyl-N-(2-{1-[α,α-^2H-benzyl]piperidin-4-yl}ethyl)-4-[5-(trifluoromethyl)pyrimidin-2-yl]piperazine-1-carboxamide], the inhibition constant (Ki) on human M3 receptor fell in the range of 100 to 1000 nM.
Consider `C[C@@H]1CN(c2ncc(C#N)cn2)C[C@H](C)N1C(=O)NCCC1CCN(Cc2ccccc2)CC1` [21-15, (2R,6S)-4-(5-cyanopyrimidin-2-yl)-2,6-dimethyl-N-(2-{1-[α,α-^2H-benzyl]piperidin-4-yl}ethyl)piperazine-1-carboxamide], for which the Ki on human M3 receptor was greater than 1000 nM; on human M4 receptor, less than 10 nM; at human M1 receptor, greater than 1000 nM; on human M5 receptor, greater than 1000 nM.
Regarding `C[C@@H]1CN(c2ncc(C(F)(F)F)c(N)n2)CCN1C(=O)NCCC1CCN(Cc2ccccc2)CC1` [21-16, (2R)-4-[4-amino-5-(trifluoromethyl)pyrimidin-2-yl]-2-methyl-N-(2-{1-[α,α-^2H-benzyl]piperidin-4-yl}ethyl)piperazine-1-carboxamide], the Ki is 10 to 100 nM at human M3 receptor, less than 10 nM on human M4 receptor, less than 10 nM at human M2 receptor and 100 to 1000 nM at human M5 receptor.
As to `C[C@@H]1CN(c2ncc(C(F)(F)F)c(N)n2)CCN1C(=O)NCCC1CCN(Cc2ccccc2)CC1` [21-17, (2R)-4-[4-amino-5-(trifluoromethyl)pyrimidin-2-yl]-2-methyl-N-(2-{1-[α,α-^2H-benzyl]piperidin-4-yl}ethyl)piperazine-1-carboxamide], the inhibition constant (Ki) at human M3 receptor is 10 to 100 nM; at human M4 receptor, less than 10 nM; at human M2 receptor, less than 10 nM; on human M5 receptor, 100 to 1000 nM.

(Values after patent US11033539B2, “Compounds of formulas (VII), (VIII), (IX), (XI), (XII), (XIII), and (XIV) as muscarinic receptor 4(M4) antagonists for treating neurological diseases” (Neurocrine Biosciences, Inc., priority 2015, dated 2021).)
